Active and inactive are the calls of the source.
Tests used:
[1] = target: T1, fMet-Leu-Phe receptor (Homo sapiens, UniProt P21462); test: FPR ligands, dose response (AID 519); assay type: functional
T1 sequence (P21462 whole entry): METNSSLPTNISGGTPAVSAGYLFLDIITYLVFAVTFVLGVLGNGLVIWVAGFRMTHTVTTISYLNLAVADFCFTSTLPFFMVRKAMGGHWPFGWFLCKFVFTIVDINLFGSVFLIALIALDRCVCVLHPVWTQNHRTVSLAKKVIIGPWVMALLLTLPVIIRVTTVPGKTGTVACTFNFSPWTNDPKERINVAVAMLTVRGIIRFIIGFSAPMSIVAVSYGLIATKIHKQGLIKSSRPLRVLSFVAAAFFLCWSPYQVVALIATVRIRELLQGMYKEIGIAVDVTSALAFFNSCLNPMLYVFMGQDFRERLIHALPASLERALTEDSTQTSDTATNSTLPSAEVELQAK

[2] = target: T2, Protein Tat (Human immunodeficiency virus type 1 group M subtype B (isolate HXB2)(HIV-1), UniProt P04608); assay type: functional;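 note: tat binding to TAR RNA read out by fluorescence polarization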
T2 sequence (P04608 whole entry): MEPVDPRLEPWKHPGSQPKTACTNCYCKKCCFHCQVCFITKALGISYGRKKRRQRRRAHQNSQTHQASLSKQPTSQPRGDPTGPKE

[3] = system: Streptococcus; test: Group A Streptococcus viability loss, dose response, counter-screen for streptokinase expression inhibitor project, luminescence, BacTiterGlo (AID 1915); assay type: functional, organism-based;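 note: potency for reduction of bacterial viability or growth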
[4] = Artemis endonuclease inhibitor potency, dose response, biochemical, fluorescence intensity (AID 720701); assay type: functional;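 note: Artemis endonuclease enzyme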
[5] = system: Streptococcus sp. 'group A'; test: growth inhibition of control SK(-) GAS strain, dose response, counter-screen for streptokinase expression inhibitor project, luminescence, kanamycin, BacTiterGlo, confirmation (AID 1900); assay type: functional, organism-based
[6] = P. falciparum late gametocyte killing, dose response, luminescence (AID 1117278); assay type: functional, cell-based;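 note: gametocytes exposed to compound for 24 hours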
[7] = Jurkat T cell cytotoxicity, dose response, cytotoxicity control for P. falciparum gametocyte viability project, luminescence (AID 1117277); assay type: functional, cell-based;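 note: potency reflects loss of cellular ATP meaning fewer viable cells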
[8] = target: T3, Fructose-bisphosphate aldolase (Mycobacterium tuberculosis, UniProt P9WQA3); test: Fluorescence-based biochemical high throughput dose response assay for inhibitors of the fructose-bisphosphate aldolase (FBA) of M. tuberculosis.; assay type: functional
T3 sequence (P9WQA3 whole entry): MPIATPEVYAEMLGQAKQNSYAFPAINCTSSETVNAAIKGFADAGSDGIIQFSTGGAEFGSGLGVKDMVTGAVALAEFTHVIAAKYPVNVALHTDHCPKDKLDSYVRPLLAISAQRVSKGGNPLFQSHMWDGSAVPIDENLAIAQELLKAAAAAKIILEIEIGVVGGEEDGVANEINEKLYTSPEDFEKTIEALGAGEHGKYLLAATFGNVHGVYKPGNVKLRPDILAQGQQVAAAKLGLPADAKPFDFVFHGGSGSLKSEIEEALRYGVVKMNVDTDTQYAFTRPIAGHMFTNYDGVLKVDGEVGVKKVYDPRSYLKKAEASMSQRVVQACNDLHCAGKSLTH

[9] = LGR2 antagonists, dose response, cell-based, HEK293, CRE-luciferase reporter, cherry pick, set 2 (AID 743343); assay type: functional;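 note: transfected cells were stimulated with diluted bursicon conditioned medium after compound addition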
[10] = HepG2 cell cytotoxicity, dose response, cytotoxicity control, plate reader, cherry-pick, antagonist series (AID 743416); assay type: functional, cell-based
[11] = MC4R antagonists, dose response, counter-screen for LGR2 antagonist project, cell-based, plate reader, cherry pick (AID 743444); assay type: functional;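 note: transfected HEK 293 cells stimulated with alpha-MSH peptide; potency of inhibitors of the alpha-MSH evoked signal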
[12] = system: HEK293; test: inhibitors of LMP1-driven NF-kB reporter, dose response, cell-based, HEK293, luciferase, cherry-pick (AID 588343); assay type: functional; conditions: Homo sapiens
[13] = HEK293 cell cytotoxicity, dose response, cytotoxicity control, plate reader, cherry-picked samples (AID 743446); assay type: functional, cell-based
[14] = target: Paired box protein Pax-8 (Homo sapiens, UniProt Q06710); test: inhibitors of PAX8-driven TPO luciferase reporter, dose response, RMG-I cells, cherry-pick (AID 687027); assay type: functional, cell-based;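 note: luciferase reporter driven by Pax8 target thyroperoxidase promoter measured by SteadyGlo luminescence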
[15] = A549 cell cytotoxicity, dose response, cytotoxicity control, plate reader, cherry-pick, antagonist series (AID 743412); assay type: functional, cell-based
[16] = NIH-3T3 fibroblast cytotoxicity, dose response, cytotoxicity control, cell-based, fluorescence, Alamar Blue, secondary assay (AID 2327); assay type: functional;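 note: NIH-3T3 mouse fibroblasts cultured with fluconazole at 8 µg/mL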
[17] = C. albicans growth with fluconazole, confirmation, fluorescence, retest (AID 2467); assay type: functional, cell-based

Sequence of Paired box protein Pax-8 (Q06710 whole entry): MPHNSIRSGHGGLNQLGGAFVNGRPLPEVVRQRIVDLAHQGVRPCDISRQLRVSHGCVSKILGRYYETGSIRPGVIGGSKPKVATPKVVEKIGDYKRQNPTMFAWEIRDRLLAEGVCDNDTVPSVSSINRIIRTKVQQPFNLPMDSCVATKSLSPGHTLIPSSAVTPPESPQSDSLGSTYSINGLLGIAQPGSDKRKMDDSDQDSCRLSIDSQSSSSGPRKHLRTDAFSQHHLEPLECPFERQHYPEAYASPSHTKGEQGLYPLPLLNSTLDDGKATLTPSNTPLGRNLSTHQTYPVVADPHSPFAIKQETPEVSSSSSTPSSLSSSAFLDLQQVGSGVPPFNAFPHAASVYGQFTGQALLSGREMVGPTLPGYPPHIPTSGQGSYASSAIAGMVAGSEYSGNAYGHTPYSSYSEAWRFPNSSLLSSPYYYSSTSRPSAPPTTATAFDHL

For `COc1ccc(NC(=O)C(c2ccc(C)cc2)N(C)C(=O)c2cnccn2)cc1` (stereo unspecified), the Ki [1] was > 66.7 µM (inactive).

For `CCC(=O)Nc1cc(C)c(NC(=O)C23CC4CC(CC(C4)C2)C3)cn1`, the IC50 [2] was > 100 µM (active).

In the case of `CC(C)Cn1c2c(c(O)c(C(=O)Nc3ncccc3O)c1=O)CCCC2`, the EC50 [3] is reported as 3.34 µM (active), the IC50 [4] is reported as 16.3 µM (active) and the EC50 [5] is reported as 2.97 µM (active).

In the case of `COc1ccc(-c2nc(C[S+]([O-])CC(=O)NCCCN3CC(C)CC(C)C3)c(C)o2)cc1OC` (stereo unspecified), the IC50 [6] is reported as > 109 µM (inactive) and the IC50 [7] is reported as > 83.3 µM (inactive).

In the case of `CCCc1cc(O)nc(SCC(=O)N2CCN(S(=O)(=O)c3ccc4ccccc4c3)CC2)n1`, the IC50 [6] is reported as > 109 µM (inactive) and the IC50 [7] is reported as > 83.3 µM (inactive).

In the case of `CC(=O)N1CCN(C(=O)c2cc(-c3ccc(Cl)s3)nc3ccccc23)CC1`, the IC50 [8] is reported as 1.17 µM (active).

With `COc1ccc(-c2[nH]ncc2-c2ccc3c(c2)OCCO3)c(O)c1` the AC50 [9] was 2.97 µM (active), the AC50 [10] was > 52 µM (inactive) and the AC50 [11] was 0.723 µM (active). The AC50 [12] was 1.78 µM (active) and the AC50 [13] was > 52 µM (inactive).

With `Cn1nnnc1Sc1ncnc2scc(-c3ccc([N+](=O)[O-])cc3)c12` the AC50 [9] was 6.25 µM (active), the AC50 [10] was 7.05 µM (active) and the AC50 [11] was 5.32 µM (active). For the same molecule, the AC50 [14] was 2.57 µM (active), the AC50 [13] was 6.48 µM (active) and the AC50 [15] was 6.71 µM (active).

For `CCOC(=O)CNC(=O)c1cc(OC)cc(OC)c1`, the IC50 [6] was > 109 µM (inactive) and the IC50 [7] was > 83.3 µM (inactive).

In the case of `Nc1ncc2c(n1)-c1ccccc1CC2`, the IC50 [8] is reported as 1.53 µM (active).

For `COCCN1C(=O)C(O)=C(C(=O)c2ccco2)C1c1cccc(Oc2ccccc2)c1` (stereo unspecified), the Ki [1] was 56 µM (inactive), the EC50 [16] was > 150 µM (inactive) and the EC50 [17] was 4.35 µM (active).

For `COc1ccc(-n2ncc3c(N4CCC(C)CC4)ncnc32)cc1`, the AC50 [9] was 11.6 µM (active), the AC50 [10] was > 52 µM (inactive) and the AC50 [11] was 19.3 µM (active). The AC50 [13] was > 52 µM (inactive).

Source: ChEMBL document CHEMBL1201862, “PubChem BioAssay data set” (2004)
